Publication PMC11762167, “G Protein-Coupled Receptor 17 Inhibits Glucagon-like Peptide-1 Secretion via a Gi/o-Dependent Mechanism in Enteroendocrine Cells” (Biomolecules, 2024)

Tests used:
Format in all cases: cell-based
hGPR17L-V96M [1] = target: T1, hGPR17L-V96M (Homo sapiens, UniProt Q13304, V96M); test: GLP-1 secretion from GLUTag cells expressing hGPR17L-V96M; details: 100 µM MDL29,951, GLUTag hGPR17L-V96M
T1 construct: host or cells: GLUTag cells, adenoviral transduction
Description: (§1) GLUTag cells were maintained in Dulbecco’s Modified Eagle Medium (DMEM) supplemented with 10% fetal bovine serum and 1% penicillin–streptomycin in a humidified incubator at 37 °C and 5% CO2. For adenovirus transduction, GLUTag cells were seeded into poly-D-lysine coated 96-well plates or 4-chamber slides. The next day, cells were transduced with adenoviruses (100–1250 viral particles per cell at time of seeding) as indicated. After 24–30 h, adenovirus-containing media was changed to serum-free growth media for overnight serum starvation. The following day, GLUTag cells were used for cAMP or calcium signaling assays, GLP-1 secretion assays, or immunostaining and imaging.
GLUTag cells were seeded into poly-D-lysine-coated 96-well plates and transduced with adenovirus as specified above and then tested for GLP-1 secretion. Medium was removed and cells were washed two times with GLP-1 secretion buffer (138 mM NaCl, 4.5 mM KCl, 4.2 mM NaHCO3, 2.5 mM CaCl2, 1.2 mM MgCl2, 10 mM HEPES, 1 mM glucose, and 0.1% bovine serum albumin, pH 7.4). […] Plates were then centrifuged at 300× g for 1 min at 4 °C, and 75 µL of the supernatant was removed and frozen at −80 °C until subsequent GLP-1 quantification. Total GLP-1 was quantified using the Meso Scale Discovery Total GLP-1 V-PLEX kit (Rockville, MD, USA; K1503PD) according to manufacturer’s instructions. […]

hGPR17L-V96M [2] = target: T1, hGPR17L-V96M; test: Calcium flux in GLUTag cells expressing hGPR17L-V96M; details: for Mean Diff. (Tukey's multiple comparisons test, Figure 4C): hGPR17L-V96M
Description: as §1
GLUTag cells were seeded into black, clear bottom, poly-D-lysine-coated 96-well plates. Cells were transduced and serum starved as specified above. Growth medium was then replaced with 100 μL/well assay buffer (HBSS, 20 mM HEPES, pH 7.4) and 100 μL/well Calcium 6 loading dye (R8190; Molecular Devices, San Jose, CA, USA). During dye loading, cells were incubated at 37 °C and 5% CO2 for 2 h. MDL29,951 or KCl was added to the wells and fluorescence (485 nm excitation, 525 nm emission, and 515 nm automatic emission cutoff) was measured using a Molecular Devices FlexStation3 (Molecular Devices) at 37 °C. For experiments with PTX, cells were pretreated with 100 ng/mL PTX overnight and 100 ng/mL PTX was included with Calcium 6 loading dye for calcium flux assays. For experiments with YM-254890, cells were pretreated for 30 min at 37 °C.

hGPR17S = target: T2, hGPR17S (Homo sapiens, UniProt Q13304); test: Membrane β-arrestin recruitment in HEK293 cells transfected with hGPR17S
T2 construct: host or cells: HEK293 cells (ATCC CRL-1573), transient transfection
Description: Membrane β-arrestin recruitment measurements were conducted using a luminescent membrane β-arrestin recruitment reporter assay. HEK293 cells were seeded into white, opaque, poly-D-lysine-coated 96-well plates and transiently transfected using Lipofectamine 3000 (Thermo Fisher Scientific, Waltham, MA, USA) according to the manufacturer’s protocol on the following day. At 48 h post-transfection, cells were washed twice with assay buffer (HBSS, 20 mM HEPES, pH 7.4) and allowed to equilibrate to room temperature for 15 min in assay buffer. Cells were then loaded with coelenterazine h (Nanolight Technology, Prolume Ltd., Lakeside, AZ, USA; 5 µM final concentration) for 5 min in the dark. Luminescence was read using a SpectraMax iD3 (Molecular Devices) with 1 s integration time. Baseline luminescence was read every 2 min for 6 min. Agonist was added and then luminescence was read every 2 min for 30 min.

hGPR17L [3] = target: T3, hGPR17L (Homo sapiens, UniProt Q13304); test: Calcium mobilization in HEK293 cells transfected with hGPR17L
Description: HEK293 cells were maintained and transfected as previously described.
Calcium flux in HEK293 cells was measured as previously described.

hGPR17L [4] = target: T3, hGPR17L; test: GLP-1 secretion from GLUTag cells expressing hGPR17L; design: host or cells: GLUTag cells (murine enteroendocrine line), adenoviral transduction
Description: as §1
GLUTag cells were seeded into poly-D-lysine-coated 96-well plates and transduced with adenovirus as specified above and then tested for GLP-1 secretion. Medium was removed and cells were washed two times with GLP-1 secretion buffer (138 mM NaCl, 4.5 mM KCl, 4.2 mM NaHCO3, 2.5 mM CaCl2, 1.2 mM MgCl2, 10 mM HEPES, 1 mM glucose, and 0.1% bovine serum albumin, pH 7.4). Cells were stimulated for 2 h with indicated treatments diluted in GLP-1 secretion buffer for a total volume of 200 µL/well at 37 °C and 5% CO2. Plates were then centrifuged at 300× g for 1 min at 4 °C, and 75 µL of the supernatant was removed and frozen at −80 °C until subsequent GLP-1 quantification. Total GLP-1 was quantified using the Meso Scale Discovery Total GLP-1 V-PLEX kit (Rockville, MD, USA; K1503PD) according to manufacturer’s instructions. For PTX treatment conditions, cells were pretreated with 100 ng/mL PTX overnight. For experiments with YM-254890, cells were pretreated for 15 min at 37 °C and 5% CO2.

mGPR17 = mGPR17 (Mus musculus, UniProt Q6NS65); test: Endpoint cAMP in GLUTag cells expressing mGPR17; design: host or cells: GLUTag cells, adenoviral transduction
Description: as §1
Endpoint cAMP measurements were conducted as follows. GLUTag cells were seeded into poly-D-lysine-coated 96-well plates and transduced with adenovirus as specified above and then tested for cAMP signaling. Medium was removed and cells were washed with cAMP stimulation buffer (Hanks’ balanced salt solution (HBSS), 20 mM HEPES, pH 7.4) and then incubated in cAMP stimulation buffer for 30 min at 37 °C and 5% CO2. Cells were then treated for 30 min with agonist and forskolin in the presence of 500 µM IBMX at 37 °C and 5% CO2. Stimulation buffer was then decanted, and cAMP lysis buffer (50 mM HEPES, 10 mM CaCl2, 0.35% Triton X-100, and 500 µM IBMX) was added and shaken at 700 rpm for 1 h. Lysate was transferred to a 384-well plate, and the cAMP levels were quantified using the Cisbio HTRF cAMP (Gi kit; Revvity, Waltham, MA, USA) according to the manufacturer’s protocol.

T2 sequence (Q13304 29-367): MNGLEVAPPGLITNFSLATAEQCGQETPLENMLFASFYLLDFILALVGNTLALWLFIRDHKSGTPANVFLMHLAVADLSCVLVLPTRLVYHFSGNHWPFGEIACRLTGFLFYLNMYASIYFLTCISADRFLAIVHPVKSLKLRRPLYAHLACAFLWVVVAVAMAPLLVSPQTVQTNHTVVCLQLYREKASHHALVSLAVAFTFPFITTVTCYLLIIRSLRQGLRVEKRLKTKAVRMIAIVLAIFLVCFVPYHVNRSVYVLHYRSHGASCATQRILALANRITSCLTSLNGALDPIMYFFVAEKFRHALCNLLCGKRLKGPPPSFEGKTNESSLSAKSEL
T1 sequence (Q13304 whole entry V96M): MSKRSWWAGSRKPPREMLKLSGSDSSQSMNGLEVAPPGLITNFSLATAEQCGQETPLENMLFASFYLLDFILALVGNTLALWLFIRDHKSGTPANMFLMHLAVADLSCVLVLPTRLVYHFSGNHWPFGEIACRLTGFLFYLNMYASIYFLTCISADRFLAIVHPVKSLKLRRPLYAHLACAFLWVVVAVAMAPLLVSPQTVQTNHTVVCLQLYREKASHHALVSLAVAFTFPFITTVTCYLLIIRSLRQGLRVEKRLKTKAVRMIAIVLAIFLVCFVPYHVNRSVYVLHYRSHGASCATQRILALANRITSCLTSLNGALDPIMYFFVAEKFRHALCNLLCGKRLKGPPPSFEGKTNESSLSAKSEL
T3 sequence (Q13304 whole entry): as the sequence (Q13304 whole entry V96M) above, with M96V counted along it
mGPR17, sequence (Q6NS65 whole entry): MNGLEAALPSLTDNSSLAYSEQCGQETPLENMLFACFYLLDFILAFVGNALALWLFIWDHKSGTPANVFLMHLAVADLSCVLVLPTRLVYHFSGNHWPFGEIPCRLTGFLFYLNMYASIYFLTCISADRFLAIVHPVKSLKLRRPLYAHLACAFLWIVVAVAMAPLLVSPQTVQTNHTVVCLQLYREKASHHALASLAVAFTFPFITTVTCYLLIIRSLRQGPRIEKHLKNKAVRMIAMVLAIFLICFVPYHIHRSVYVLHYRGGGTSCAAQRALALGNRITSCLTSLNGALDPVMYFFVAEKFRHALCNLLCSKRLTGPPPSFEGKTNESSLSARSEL

O=C(O)CCc1c(C(=O)O)[nH]c2cc(Cl)cc(Cl)c12 [MDL29,951]
effect on F/I-stimulated GLP-1 secretion (hGPR17L-V96M [1]): no effect | maximal calcium stimulation, % of that observed for hGPR17L-WT (hGPR17L-V96M [2]; GLUTag hGPR17L-V96M): 27 ± 1.5% | pEC50, calcium mobilization (hGPR17L-V96M [2]; GLUTag hGPR17L-V96M): 6.24 ± 0.07 | EC50 (hGPR17L-V96M [2]; GLUTag hGPR17L-V96M, read-out: EC50, calcium mobilization): 580 nM | Mean Diff. (Tukey's multiple comparisons test, Figure 4C) (hGPR17L-V96M [2]; log [MDL29,951] (M) -4.5 vs. Vehicle): 27.53 | Mean Diff. (Tukey's multiple comparisons test, Figure 4C) (hGPR17L-V96M [2]; log [MDL29,951] (M) -5.0 vs. Vehicle): 24.23 | Mean Diff. (Tukey's multiple comparisons test, Figure 4C) (hGPR17L-V96M [2]; log [MDL29,951] (M) -5.5 vs. Vehicle): 21.87 | Mean Diff. (Tukey's multiple comparisons test, Figure 4C) (hGPR17L-V96M [2]; log [MDL29,951] (M) -6.0 vs. Vehicle): 17.65 | Mean Diff. (Tukey's multiple comparisons test, Figure 4C) (hGPR17L-V96M [2]; log [MDL29,951] (M) -6.4 vs. Vehicle): 11.95 | Mean Diff. (Tukey's multiple comparisons test, Figure 4C) (hGPR17L-V96M [2]; log [MDL29,951] (M) -6.9 vs. Vehicle): 4.328 | Mean Diff. (Tukey's multiple comparisons test, Figure 4C) (hGPR17L-V96M [2]; log [MDL29,951] (M) -7.4 vs. Vehicle): 1.581 | Mean Diff. (Tukey's multiple comparisons test, Figure 4C) (hGPR17L-V96M [2]; log [MDL29,951] (M) -7.9 vs. Vehicle): 0.8859 | Mean Diff. (Tukey's multiple comparisons test, Figure 4C) (hGPR17L-V96M [2]; log [MDL29,951] (M) -8.3 vs. Vehicle): 0.4181 | Mean Diff. (Tukey's multiple comparisons test, Figure 4C) (hGPR17L-V96M [2]; log [MDL29,951] (M) -8.8 vs. Vehicle): -0.03776 | β-arrestin Emax (Peak ΔRLU/RLU) (hGPR17S): 0.50±0.04 | β-arrestin Potency (pEC50) (hGPR17S): 6.62±0.08 | EC50 (hGPR17S; read-out: β-arrestin Potency EC50): 240 nM | Calcium Emax (Mean Peak ΔF/F) (hGPR17L [3]): 1.92±0.22 | Calcium Potency (pEC50) (hGPR17L [3]): 7.29±0.11 | EC50 (hGPR17L [3]; read-out: Calcium Potency EC50): 51 nM | concentration at which maximum inhibition of F/I-stimulated GLP-1 secretion was observed (hGPR17L [4]): 25 µM | effect on F/I-stimulated GLP-1 secretion (hGPR17L [4]; 100 nM MDL29,951, 10 μM forskolin and 10 μM IBMX): no effect | effect on GLP-1 secretion under basal conditions (hGPR17L [4]; 100 nM or 100 µM MDL29,951, hGPR17L-transduced): no effect | IC50 (hGPR17L [4]; 10 µM forskolin and 10 µM IBMX, no antagonist, read-out: IC50, inhibition of F/I-stimulated GLP-1 secretion): 300 nM | inhibition of F/I-stimulated GLP-1 secretion (hGPR17L [4]; 100 μM MDL29,951): 30 ± 7.7% | effect on PMA-stimulated GLP-1 secretion as compared to vehicle-treated cells (raw data) (hGPR17L [4]; 100 µM MDL29,951, 300 nM PMA): significantly inhibited | pIC50, inhibition of F/I-stimulated GLP-1 secretion (hGPR17L [4]; no antagonist): 6.53 ± 0.31 | concentration of maximal inhibition of forskolin-stimulated cAMP (mGPR17; 10 µM forskolin, GLUTag mGPR17): 1 µM | Mean Diff. (Tukey's multiple comparisons test), cAMP, Row 10 vs. Row 11 (mGPR17; mGPR17 (100), log [MDL29,951] (M) -4.0 vs. Vehicle, Forskolin stimulation, Figure 4B): -19.04 | Mean Diff. (Tukey's multiple comparisons test), cAMP, Row 9 vs. Row 11 (mGPR17; mGPR17 (100), log [MDL29,951] (M) -4.6 vs. Vehicle, Forskolin stimulation, Figure 4B): -22.19 | Mean Diff. (Tukey's multiple comparisons test), cAMP, Row 8 vs. Row 11 (mGPR17; mGPR17 (100), log [MDL29,951] (M) -5.2 vs. Vehicle, Forskolin stimulation, Figure 4B): -23.87 | Mean Diff. (Tukey's multiple comparisons test), cAMP, Row 7 vs. Row 11 (mGPR17; mGPR17 (100), log [MDL29,951] (M) -5.8 vs. Vehicle, Forskolin stimulation, Figure 4B): -30.13 | Mean Diff. (Tukey's multiple comparisons test), cAMP, Row 6 vs. Row 11 (mGPR17; mGPR17 (100), log [MDL29,951] (M) -6.4 vs. Vehicle, Forskolin stimulation, Figure 4B): -28.75 | Mean Diff. (Tukey's multiple comparisons test), cAMP, Row 5 vs. Row 11 (mGPR17; mGPR17 (100), log [MDL29,951] (M) -7.0 vs. Vehicle, Forskolin stimulation, Figure 4B): -21.6 | Mean Diff. (Tukey's multiple comparisons test), cAMP, Row 4 vs. Row 11 (mGPR17; mGPR17 (100), log [MDL29,951] (M) -7.6 vs. Vehicle, Forskolin stimulation, Figure 4B): -16.65 | Mean Diff. (Tukey's multiple comparisons test), cAMP, Row 3 vs. Row 11 (mGPR17; mGPR17 (100), log [MDL29,951] (M) -8.2 vs. Vehicle, Forskolin stimulation, Figure 4B): -3.513 | Mean Diff. (Tukey's multiple comparisons test), cAMP, Row 2 vs. Row 11 (mGPR17; mGPR17 (100), log [MDL29,951] (M) -8.8 vs. Vehicle, Forskolin stimulation, Figure 4B): -3.853 | Mean Diff. (Tukey's multiple comparisons test), cAMP, Row 1 vs. Row 11 (mGPR17; mGPR17 (100), log [MDL29,951] (M) -9.4 vs. Vehicle, Forskolin stimulation, Figure 4B): -5.46
